The text below walks through data of ChEMBL document CHEMBL6182943, “Identification of 4'-Thiouridine as an Orally Available Antiviral Agent Targeting Both RdRp and NiRAN Functions of SARS-CoV-2 Nsp12” (J Med Chem, 2025).

Broadly, the EC50 is the concentration that produces a half-maximal response. By CC50 is commonly meant the concentration giving 50% cytotoxicity.

Where only a bound is given, the exact number is not on record here.

Series [1] has as its system SARS-CoV-2. Briefly: Antiviral activity against SARS-CoV-2 Wuhan-like (hCoV-19/Korea/KCDC06/2020) infected in human Calu-3 cells assessed as reduction in number of spike-protein expressing cells pre-infected for 30 mins followed by compound addition and measured 48 hrs post-infection by DAPI staining based immunofluorescence analysis relative to control. Type of series: functional, organism-based. The note with it: Severe acute respiratory syndrome coronavirus 2, Wuhan-like (hCoV-19/Korea/KCDC06/2020).

The nature of series [2]: Selectivity index, ratio of CC50 for cytotoxicity against human Calu-3 cells to EC50 for antiviral activity against SARS-CoV-2 Delta (hCoV-19/Korea/KDCA119861/2021) infected in human Calu-3 cells assessed as reduction in number of spike-protein expressing cells. Type of series: toxicity, cell-based. The note with it: read-out: Ratio CC50/EC50.
Another series relates to Zaire ebolavirus. Briefly: Antiviral activity against Zaire Ebola virus infected in HEK293T cells transfected with viral replication protein and Renilla luciferase pre-infected for 4 hrs followed by compound addition and measured after 48 hrs by Dual-luciferase reporter assay. It counts as functional, organism-based. The note with it: HEK-293T. For orientation: A reporter such as luciferase makes a cellular process visible.

The nature of series [3]: Selectivity index, ratio of CC50 for cytotoxicity against human Calu-3 cells to EC50 for antiviral activity against SARS-CoV-2 Wuhan-like (hCoV-19/Korea/KCDC06/2020) infected in human Calu-3 cells assessed as reduction in number of spike-protein expressing cells. It counts as toxicity, cell-based. The note with it: read-out: Ratio CC50/EC50.
A short description of series [4]: Selectivity index, ratio of CC50 for cytotoxicity against human Calu-3 cells to EC50 for antiviral activity against SARS-CoV-2 Gamma (hCoV-19/Korea95637/KDCA/2021) infected in human Calu-3 cells assessed as reduction in number of spike-protein expressing cells. It counts as toxicity, cell-based. The note with it: read-out: Ratio CC50/EC50.
The nature of series [5]: Cytotoxicity against human Huh-7 cells assessed as reduction in cell viability by MTT-based cell viability assay. It counts as toxicity.
A short description of series [6]: Cytotoxicity against HEK293T cells assessed as reduction in cell viability measured after 48 hrs by MTT assay. Type of series: toxicity, cell-based, HEK-293T. The note with it: human.
Series [7] is described as follows: Cytotoxicity against human Calu-3 cells assessed as reduction in cell viability incubated for 48 hrs by MTT assay. Type of series: toxicity, cell-based. For orientation: Tetrazolium assays rely on reduction of a dye to a coloured formazan, in cell work by metabolically active cells.
Series [8] is described as follows: Selectivity index, ratio of CC50 for cytotoxicity against human Huh-7 cells to EC50 for antiviral activity against MERS-CoV KOR/KNIH/002_05_2015 infected in human Huh-7 cells assessed as inhibition of virus-induced cytopathic effect. It counts as toxicity, cell-based. The note with it: read-out: Ratio CC50/EC50. Background: Protection from cytopathic effect is a common read-out in antiviral testing.

Series [9] deals with SARS-CoV-2. Briefly: Antiviral activity against SARS-CoV-2 Omicron (hCoV-19/Korea/KDCA447321/2021) infected in human Calu-3 cells assessed as reduction in number of spike-protein expressing cells pre-infected for 30 mins followed by compound addition and measured 48 hrs post-infection by DAPI staining based immunofluorescence analysis relative to control. Type of series: functional, organism-based. The note with it: Severe acute respiratory syndrome coronavirus 2, Omicron (hCoV-19/Korea/KDCA447321/2021).

Series [10] relates to SARS-CoV-2. Briefly: Antiviral activity against SARS-CoV-2 infected in african green monkey Vero cells assessed as reduction in number of spike-protein expressing cells pre-infected for 30 mins followed by compound addition and measured 48 hrs post-infection by DAPI staining based immunofluorescence analysis. It counts as functional, organism-based. The note with it: Severe acute respiratory syndrome coronavirus 2, Vero.

The nature of series [11]: Cytotoxicity against rhesus monkey LLC-MK2 cells assessed as reduction in cell viability by MTT-based cell viability assay. Type of series: toxicity, Macaca mulatta.
A short description of series [12]: Cytotoxicity against African green monkey Vero cells assessed as reduction in cell viability incubated for 48 hrs by MTT assay. It counts as toxicity, cell-based. The note with it: chlorocebus sabaeus.
Series [13] is described as follows: Selectivity index, ratio of CC50 for cytotoxicity against rhesus monkey LLC-MK2 cells to EC50 for antiviral activity against HCoV-NL63 infected in rhesus monkey LLC-MK2 cells assessed as inhibition of virus-induced cytopathic effect. The note with it: read-out: Ratio CC50/EC50. Type of series: toxicity, cell-based.
Series [14] is described as follows: Selectivity index, ratio of CC50 for cytotoxicity against African green monkey Vero cells to EC50 for antiviral activity against SARS-CoV-2 infected in african green monkey Vero cells assessed as reduction in number of spike-protein expressing cells. It counts as toxicity, cell-based. The note with it: read-out: Ratio CC50/EC50.
Series [15] relates to SARS-CoV-2. Briefly: Antiviral activity against SARS-CoV-2 Delta (hCoV-19/Korea/KDCA119861/2021) infected in human Calu-3 cells assessed as reduction in number of spike-protein expressing cells pre-infected for 30 mins followed by compound addition and measured 48 hrs post-infection by DAPI staining based immunofluorescence analysis relative to control. It counts as functional, organism-based. The note with it: Severe acute respiratory syndrome coronavirus 2, Delta (hCoV-19/Korea/KDCA119861/2021).

The nature of series [16]: Selectivity index, ratio of CC50 for cytotoxicity against HEK293T cells to EC50 for antiviral activity against Zaire Ebola virus infected in HEK293T cells transfected with viral replication protein and Renilla luciferase. It counts as toxicity, cell-based. The note with it: human, read-out: Ratio CC50/EC50.
Series [17] relates to Middle East respiratory syndrome-related coronavirus. Briefly: Antiviral activity against MERS-CoV KOR/KNIH/002_05_2015 infected in human Huh-7 cells assessed as inhibition of virus-induced cytopathic effect measured 2 to 7 days post infection by MTT-based cell viability assay. Type of series: functional, organism-based. The note with it: KOR/KNIH/002_05_2015, Huh-7.
For series [18], the system named is SARS-CoV-2. Briefly: Antiviral activity against SARS-CoV-2 Gamma (hCoV-19/Korea95637/KDCA/2021) infected in human Calu-3 cells assessed as reduction in number of spike-protein expressing cells pre-infected for 30 mins followed by compound addition and measured 48 hrs post-infection by DAPI staining based immunofluorescence analysis relative to control. Type of series: functional, organism-based. The note with it: Severe acute respiratory syndrome coronavirus 2, Gamma (hCoV-19/Korea95637/KDCA/2021).

A further series concerns Human coronavirus NL63. Briefly: Antiviral activity against HCoV-NL63 infected in LLC-MK2 cells assessed as inhibition of virus-induced cytopathic effect measured 2 to 7 days post infection by MTT-based cell viability assay. It counts as functional, organism-based.
Series [19] can be described thus: Selectivity index, ratio of CC50 for cytotoxicity against human Calu-3 cells to EC50 for antiviral activity against SARS-CoV-2 Omicron (hCoV-19/Korea/KDCA447321/2021) infected in human Calu-3 cells assessed as reduction in number of spike-protein expressing cells. The note with it: read-out: Ratio CC50/EC50. It counts as toxicity, cell-based.
The nature of series [20]: Selectivity index, ratio of CC50 for cytotoxicity against human H1-HeLa cells to EC50 for antiviral activity against Human rhinovirus B14 infected in human H1-HeLa cells. Type of series: toxicity, cell-based. The note with it: read-out: Ratio CC50/EC50.
The test system of a further series is rhinovirus B14. Briefly: Antiviral activity against Human rhinovirus B14 infected in human H1-HeLa cells incubated for 72 hrs. Type of series: functional, organism-based. The note with it: Rhinovirus B.
A short description of series [21]: Cytotoxicity against human H1-HeLa cells assessed as reduction in cell viability incubated for 72 hrs. It counts as toxicity, cell-based.

In the case of `CCC(CC)COC(=O)[C@H](C)N[P@](=O)(OC[C@H]1O[C@@](C#N)(c2ccc3c(N)ncnn23)[C@H](O)[C@@H]1O)Oc1ccccc1`, the EC50 is 570 nM in the series with SARS-CoV-2 [1]; 180 nM in the series with Zaire ebolavirus; 984 nM in the series with SARS-CoV-2 [9]; 4830 nM in the series with SARS-CoV-2 [10]; 2400 nM in the series with SARS-CoV-2 [15]; < 42 nM in [17]. The EC50 with SARS-CoV-2 [18] came out at 1370 nM; with Human coronavirus NL63, 140 nM. Besides, the selectivity ratio was > 41.6 in [2]; > 174 in series [3]; > 73.1 in [4]; > 348 in series [8]; > 702 in series [13]; > 20.7 in series [14]. In addition, the selectivity ratio was 14.2 in series [16] and > 24.7 in [19]. The CC50 in [5] is 19600 nM; in series [11], > 100000 nM. Moreover, the cytotoxic concentration (CC50) at 48 h in series [6] was 2620 nM; in series [7], > 100000 nM; in [12], > 100000 nM.
As to `CCOC(=O)/C=C/[C@H](C[C@@H]1CCNC1=O)NC(=O)[C@@H](CC(=O)[C@@H](NC(=O)c1cc(C)on1)C(C)C)Cc1ccc(F)cc1`, the selectivity ratio in series [20] is > 176. In the series on rhinovirus B14, this molecule displayed an EC50 of 570 nM. In [21], the CC50 at 72 h was > 100000 nM.
